This is an account of results in US7795380B2, “Compositions and methods for nucleic acid delivery” (University of Iowa Research Foundation, priority 2006, dated 2010).

For one data set, the system named is erythrocytes. The conditions noted are these: cited from earlier work.
Data set [1] is described as follows: stability of the linker peptide by LC/MS. The data set is classed as physicochemical. The protocol:
To test the hypothesis that the new linker would be stable under normal operating conditions, the linker was first synthesized via solid phase peptide synthesis and then purified by preparative reverse phase HPLC. Characterization and purity of the linker was accomplished through analytical reverse phase HPLC and LC/MS (FIG. 11). The stability of the linker peptide was determined by LC/MS after exposure to a variety of conditions including incubations at room temperature, 37° C., 50° C., and exposure to sunlight.
However, this is not surprising since PL-L1 peptide is a photoactive compound and should photoactivate if provided the proper stimulus.

Where no end group is shown, it is not given here. photolabel = not defined here

In the case of “H5WYG: cationic peptide from HA-2 with His in place of Glu (GGLFHAIAAHFIHGGWHGLIHGWWG)”, the hemolysis activity result in the data set with erythrocytes (pH 6.4) was “full hemolytic activity”.
Consider “JTS-1: amphipathic acidic fusogenic peptide developed by Gottschalk and coworkers (GGLFEALLELLESLWELLLEA)”, for which the “higher hemolysis activity than INF-7” value with erythrocytes (pH of 5) is 8 fold.
Regarding “PL-Tyr-Lys-Lys-Lys (photolabel-YKKK; reading uncertain; also: printed as PL-Tyr-Lys-Lys-Lys) [PL-L1]”, the “stability by LC/MS” value in data set [1] (exposure to sunlight) is “moderate degradation”; in data set [1] (room temperature, 37° C., 50° C.), “stable”.
